US20260015352A1, “METHYLTRANSFERASE INHIBITOR AND USE THEREOF” (CYTOSINLAB THERAPEUTICS CO., LTD., priority 2022, published 2026)

What follows are molecules tested on G401 cells (assay: G401 ELISA test). Details: Homo sapiens, G-401; G401 cells treated with compounds for 72 hours; ELISA detecting K27 and H3; read-out: G401_ELISA IC50.
Type: cell-based
Description: • Plate Reader: Envision (Perkinelmner); plate shaker: IKA MTS 2/4; plate Washer: BioTek microplate wisher 405 select; Cell counter: Counterstar (Ruiyu-biotech); Cell culture incubator: MCO-15AC (ThermoFisher); Pipette: BioHit Multichannel. Pipette: 0.2-10 μL, 10-300 μL, 50-1200 μL; Centrifuge: Thermo Centrifuge ST 40R; Pure water system: Millipore Milli-Q Reference system; Refrigerator: Haier −80 degree, −20 degree, and 4-degree refrigerators; cell cryopreservation box: Mr. Frosty™ Gradient Cooling Box Cat #5100-0001
• McCoys 5A (Modified) culture medium (ATCC); FBS (Gibco); 0.25% Trypsin/EDTA (Gibco); PBS (Hyclone); Penicillin/Streptomycin(100×) (Gibco); DMSO (Sigma); 384 cell culture plate (Corning); 384 detection plate (Greiner); 96 well plate (compound dilution) (Haimen, Qunchao); T75 Cell Culture Bottle (Corning)
G401 cells were seeded in a 384-well cell culture plate and incubated overnight at 37° C. in a 5% CO2 cell culture incubator, after which the cells were treated with compounds of different concentrations for 72 hours. The 384-well cell culture plate was taken out and upside down in a centrifuge to centrifugeat 300 rpm for 1 minute. After centrifugation, the 384-well cell culture plate was washed twice with PBS, added with lysis solution and lysed for 60 minutes. Then neutralization buffer was added for mixing and incubation was continued for 30 minutes. 20 ul (for detecting K27) and 10 ul (for detecting H3) of cell lysate were extracted from the 384-well cell culture plate and transferred to a 384 ELISA detection plate and incubate overnight at 4° C. The next day, the 384 ELISA plate was taken out and washed 5 times with TBST in a microplate washer. Then, the plate was added with a blocking solution and sealed at room temperature for 1 hour. The blocking solution was discarded and the primary antibody was added and then the plate was incubated at room temperature for 1 hour. After incubation, the plate was washed with TBST 5 times in a microplate washer, then added with secondary antibody and incubated at room temperature for 1 hour. After incubation, the plate was washed with TBST 5 times in a microplate washer, and finally added with color developer for color development. The plate was read with Envision plate reader. The obtained data was converted into inhibition rate using the following calculation method: % Inhibition rate=100−100*(compound absorbance−positive control absorbance)/(negative control absorbance−positive control absorbance), and then the inhibition rate data was subjected to curve fitting using the “logarithmic (inhibitor) and reaction-variable slope (four parameters)” model in GraphPad Prism 5 software.
The inhibition rate of the compound was calculated as follows: […]
The compounds of the present invention were tested according to the above experimental method, and some results were shown in Table 3. The test results were classified by A, B, and C, wherein A represents IC50≤0.1 uM; B represents 0.1 uM<IC50≤1 uM; C represents IC50>1 uM

IC50 | Compound
> 1 µM | COc1nccc2ccc(Nc3ccc([C@H](C)Nc4ncc(CCc5cc(C(N)=O)n[nH]5)cn4)cc3F)nc12 [PA245]
> 1 µM | COCCNCc1cnc(NCc2ccc(Nc3ccc4ccnc(OC)c4n3)c(F)c2)nc1 [PA247]
> 1 µM | COc1nccc2ccc(Nc3ccc(CNc4ncc(CNCc5cnn(C)c5)cn4)cc3F)nc12 [PA249]
> 1 µM | O=C(Nc1ccc(NCC23CCC(Nc4ccc5ccnc(Cl)c5n4)(CC2)CC3)nc1)NC1COC1 [PA250]
> 1 µM | COc1nccc2ccc(Nc3ccc(CNc4ncc(CC(=O)N5CC6(COC6)C5)cn4)cc3F)nc12 [PA251]
> 1 µM | COc1nccc2ccc(Nc3ccc(CNc4ncc(CNCC5CCOCC5)cn4)cc3F)nc12 [PA252]
> 1 µM | COc1nccn2cc(Nc3ccc(CNc4ncc(CC(=O)NC5COC5)cn4)cc3)nc12 [PA253]
> 1 µM | COc1nccc2cnc(Nc3ccc(CNc4ncc(CC(=O)NC5COC5)cn4)cc3)nc12 [PA254]
> 1 µM | Cn1ccc2ccc(Nc3ccc(CNc4ncc(CC(=O)NC5COC5)cn4)cc3)nc2c1=O [PA255]
> 1 µM | COc1nccc2ccc(Nc3ccc([C@@H](CO)Nc4ncc(CC(=O)NC5COC5)cn4)cc3F)nc12 [PA256]
≤ 0.1 µM | C[C@H](Nc1ncc(C(NC2CS(=O)(=O)C2)C(=O)OC(C)(C)C)cn1)C12CCC(Nc3ccc4ccnc(Cl)c4n3)(CC1)CC2 (stereo partly drawn) [PA257]
≤ 0.1 µM | COc1nccc2ccc(Nc3ccc(CNc4ncc(CNCc5ccno5)cn4)cc3F)nc12 [PA258]
≤ 0.1 µM | COc1nccc2ccc(Nc3ccc(CNc4ncc(CN5CCS(=O)(=O)CC5)cn4)cc3F)nc12 [PA259]
≤ 0.1 µM | COc1nccc2ccc(Nc3ccc([C@H](C)Nc4ncc(CNCCS(C)(=O)=O)cn4)cc3F)nc12 [PA260]
≤ 0.1 µM | COc1nccc2ccc(Nc3ccc([C@H](C)Nc4ncc(CNC5CCS(=O)(=O)CC5)cn4)cc3F)nc12 [PA261]
≤ 0.1 µM | COc1nccc2ccc(Nc3ccc([C@H](C)Nc4ncc(C(C)C5CCS(=O)(=O)CC5)cn4)cc3F)nc12 (stereo partly drawn) [PA262]
≤ 0.1 µM | O=C(Cc1cnc(NCC23CCC(Nc4ccc5cccc(Cl)c5n4)(CC2)CC3)nc1)NC1COC1 [PA263]
≤ 0.1 µM | O=C(Cc1cnc(NC(CO)C23CCC(Nc4ccc5ccnc(Cl)c5n4)(CC2)CC3)nc1)NC1COC1 (stereo not drawn) [PA264]
≤ 0.1 µM | Cc1ccc2ccc(Nc3ccc([C@H](C)Nc4ncc(CN(CCO)C5CS(=O)(=O)C5)cn4)cc3F)nc2c1Cl [PA266]
≤ 0.1 µM | CCN(Cc1cnc(N[C@@H](C)c2ccc(Nc3ccc4ccc(C)c(Cl)c4n3)c(F)c2)nc1)C1CS(=O)(=O)C1 [PA267]
≤ 0.1 µM | Cc1ccc2ccc(Nc3ccc([C@H](C)Nc4ncc(CN(CC(=O)O)C5CS(=O)(=O)C5)cn4)cc3F)nc2c1Cl [PA268]
